According to US12144799B2, “Method for long-term storage of chlorophyll-containing extract” (ABL CO., LTD, priority 2018, dated 2024):

How the values were obtained:
[1] = Storage stability test of chlorophyll a in stabilization candidate oils (HPLC content); conditions: chlorophyll a in the oil layer, room temperature storage, dark place
Procedure: (§1) In order to analyze the content of extracted chlorophyll, high-performance liquid chromatography (HPLC) was used. Purification was performed using the Agilent 1100 Series HPLC system from AGILENT, and the column used was Shimadzu Shim-pack C18 analytical column (250 mm×4.6 mm, 5 μm, 100). The peak was detected as ultraviolet ray absorption using a diode array detector. The injection volume was […], and the flow rate was […].
(§2) The reference material for chlorophyll a was purchased from Aldrich Chemical Co. (Milwaukee, Wis.), and was used without a further purification process.
The storage stability of chlorophyll a stabilization candidate materials used in the above process for chlorophyll-a was tested. Samples were collected for each storage period at various temperatures, and the content of chlorophyll a was analyzed using the HPLC system described above.
Temperatures for the test were respectively freezing temperature (−20° C.), refrigerating temperature (4° C.), room temperature (25° C.), high temperature (50° C.), and being left at room temperature.
In this process, ethanol was removed. Thereafter, the obtained was stored for a predetermined period in a dark place for each temperature to collect samples for each storage period, and then the content of chlorophyll a was analyzed using the HPLC system described above.

[2] = Fractional extraction of chlorophyll a from ethanol extract into oil layer (HPLC); format: physicochemical; conditions: oil added 1:1 (50 ml) to ethanol extract of wheatgrass powder, stirred, layers separated for 2 minutes
Procedure: as §1, §2

CC(C)=CCC/C(C)=C/CC/C(C)=C/CC/C=C(\C)CC/C=C(\C)CCC=C(C)C [squalene]
half-life of chlorophyll a [1]: 7 months
chlorophyll a moved to / dissolved in the oil phase [2]: more than 80%
